Earlier results in patent US20230248696A1, “LENALIDOMIDE PRODRUGS, POLYMERIC CONJUGATES, AND FORMULATIONS THEREOF, AND THEIR USES FOR THE TREATMENT OF MULTIPLE MYELOMA” (DYNAMIC BIOLOGICS INC., priority 2019, published 2023).

What was measured:
KG-1 cells = details: cell line without chromosome 5 deletions
[1] = system: TNF-α, IL-1β, IL-6 and IL-12
[2] = system: IL-10, IL-2 and Interferon gamma (IFN-γ); details: peripheral blood mononuclear cells
[3] = not given; remark: listed apart in the source
[4] = high solubility and low permeability
[5] = in vitro, versus racemic lenalidomide
IL-2 = details: in vitro, versus racemic lenalidomide
TNF-alpha = details: in vitro, versus racemic lenalidomide

SMILES | inhibiting growth of Namalwa cells (Namalwa cells) | inhibiting growth of KG-1 cells (KG-1 cells) | inhibition of pro-inflammatory cytokines TNF-α, IL-1β, IL-6 and IL-12 [1] | inhibition of COX-2 expression (cyclooxygenase-2 (COX-2)) | reduction of maximal plasma concentration (Cmax) by co-administration with food (co-administration with food) [%] | oral lenalidomide dose absorbed (oral, fasting conditions) [%] | reduction of area under the concentration-time curve (AUC) by food (oral, with food) [%] | reduction of maximum concentration (Cmax) by food (oral, with food) [%] | production of IL-10, IL-2 and IFN-γ [2] | inhibition of COX-1 expression (COX-1) | patients discontinuing maintenance therapy because of neurotoxicity ([3]; maintenance therapy) [%] | patients with dyspepsia ([3]; multiple myeloma patients treated with lenalidomide) [%] | BCS class [4] | potency for anti-proliferative activities [5] | potency for IL-2 induction (increased production) (IL-2) | potency for TNF-alpha inhibition (TNF-alpha)
Nc1cccc2c1CN(C1CCC(=O)NC1=O)C2=O (racemic) [lenalidomide, 3-(4′ aminoisoindoline-1′-one)-1-piperidine-2,6-dione] | effective | much less effective | potent inhibitor | inhibits | 36 | > 90 | 20 | 50 | increases production | not | 75 | 20 | 3 | – | – | –
[2H]C1([2H])C(=O)NC(=O)[C@@]([2H])(N2Cc3c(N)cccc3C2=O)C1([2H])[2H] [CTP-221] | – | – | – | – | – | – | – | – | – | – | – | – | – | greater potency compared to racemic lenalidomide | greater potency compared to racemic lenalidomide | greater potency compared to racemic lenalidomide
